Consider 44 molecules from patent US7790896B2, “RNA-selective probes for live cell imaging of nuclear structure and function” (New York University, priority 2006, dated 2010).

SMILES strings stand for the structures.

One series concerns RNA (Type VI from torula yeast). Briefly: In vitro solution assay (primary screening): fluorescent emission fold change upon binding to RNA. As to conditions: dye 10 μM, RNA 500 μg/mL in TE buffer. On the procedure:
(§1) The fluorescence spectra data in the primary screening and selected dyes titration assay study was obtained by Gemini XS plate reader. RNA solution was prepared right before the assay experiments to avoid possible degradation and contamination. In the primary screening, 1 mg/mL RNA (type VI from torula yeast) buffer solution was used. Point scans were carried out first using five Ex/Em point sets ([…], 400/500, 450/550, 500/600, 550/650 nm). Spectra scans were then carried out for the selected dyes. Excitation wavelengths were set at 350 nm, 400 nm, 450 nm, 500 nm, and 550 nm and the emission wavelengths were scanned. RNA (16S- and 23S-ribosomal from E. coli) and DNA (salmon testes) titration experiments and quantum yield/extinction coefficient determination for the three best dyes were carried out by the plate reader as well. Excitation λmax obtained from F-2500 Hitachi Fluorophotometer was used. Absorbance wavelength was determined by SpectraMax Plus^384 absorbance plate reader. […] was chosen as standard and 480 nm was used as excitation wavelength in the scanning for quantum yield determination.
The screening strategy used in this study is illustrated in FIG. 2. Both in vitro RNA assays and live cell imaging methods were utilized in the primary screening of the dye library. Selective binding of the dye to RNA in solution was the primary criterion for selecting lead compounds for subsequent bioimaging studies, Herein, the library dyes' fluorescent emission intensity fold change upon binding to RNA was measured in solution. Dyes showing five-fold or higher emission changes in the presence of RNA were selected (Table 3). Note the dyes listed are identified by the building blocks I and II from Table 2. For example, A4 is the product made by reacting compound A from the list of Building block I and compound 4 from the list of Building block II.
With `CCN(CC)c1ccc(C=Cc2cc[n+](C)cc2)c(C#N)c1` [Dye A132], the “Em(nm)” value worked out at 610 nm, the “Ex(nm)” value came out at 500 nm and the “Fold (fluorescent emission fold changes to RNA)” value worked out at 17.
As to `C[n+]1ccc(/C=C/c2c[nH]c3ccccc23)cc1` [Dye A4], the “Em(nm)” value worked out at 540 nm, the “Ex(nm)” value came out at 450 nm and the “Fold (fluorescent emission fold changes to RNA)” value worked out at 11.
With `COc1cc(OC)c(C=Cc2cc[n+](C)cc2)c(OC)c1` [Dye A144], the “Em(nm)” value was determined as 530 nm, the “Ex(nm)” value is given as 450 nm and the “Fold (fluorescent emission fold changes to RNA)” value stood at 26.
For `Cn1c(C=Cc2ccc3ccccc3[n+]2C)cc2ccccc21` [Dye E108], in that order: 620 nm, 500 nm and 21.
For `CCn1c2ccccc2c2cc(C=Cc3cc[n+](C)c4ccccc34)ccc21` [Dye D107], in that order: 620 nm, 500 nm and 13.
For `COc1ccc2c(ccc(/C=C/c3c[nH]c4ccccc34)[n+]2C)c1` [Dye F4], the “Em(nm)” value is on record as 560 nm, the “Ex(nm)” value is 450 nm and the “Fold (fluorescent emission fold changes to RNA)” value is 62.
`CCN(CC)c1ccc(C=Cc2ccc3cc(OC)ccc3[n+]2C)c(C#N)c1` [Dye F132]: the “Em(nm)” value was 640 nm, the “Ex(nm)” value worked out at 500 nm and the “Fold (fluorescent emission fold changes to RNA)” value was 14.
Regarding `Cc1cccc(/C=C/c2ccc(N(C)C)cc2)[n+]1C` [Dye C22], the “Em(nm)” value is 630 nm, the “Ex(nm)” value is listed as 500 nm and the “Fold (fluorescent emission fold changes to RNA)” value is 6.
As for `COc1cc(/C=C/c2cccc[n+]2C)c(OCc2ccccc2)cc1OC` [Dye B156], the “Em(nm)” value is 560 nm, the “Ex(nm)” value was found to be 450 nm and the “Fold (fluorescent emission fold changes to RNA)” value came to 54.
For `C[n+]1c(C=Cc2ccc3c(c2)OCO3)ccc2ccccc21` [Dye E43], in that order: 560 nm, 450 nm and 10.
Take `COc1ccc2c(ccc(C=Cc3ccc(N(C)CCC#N)cc3)[n+]2C)c1` [Dye F9]: the “Em(nm)” value amounted to 620 nm, the “Ex(nm)” value was found to be 500 nm and the “Fold (fluorescent emission fold changes to RNA)” value was 86.
In the case of `COc1cc(OC)c(OC)cc1/C=C/c1cc[n+](C)cc1` [Dye A8], the “Em(nm)” value is 580 nm, the “Ex(nm)” value came out at 450 nm and the “Fold (fluorescent emission fold changes to RNA)” value is recorded as 37.
For the molecule `CCN(CC)c1ccc(C=Cc2ccc3cc(OC)ccc3[n+]2C)cc1` [Dye F92], the “Em(nm)” value worked out at 640 nm, the “Ex(nm)” value was found to be 500 nm and the “Fold (fluorescent emission fold changes to RNA)” value came out at 20.
`CCN(CC)c1ccc(/C=C/c2cccc(C)[n+]2C)cc1` [Dye C92]: the “Em(nm)” value is recorded as 630 nm, the “Ex(nm)” value stood at 500 nm and the “Fold (fluorescent emission fold changes to RNA)” value came out at 15.
For the molecule `COc1ccc2c(ccc(/C=C/c3cc4ccccc4n3C)[n+]2C)c1` [Dye F108], the “Em(nm)” value was 610 nm, the “Ex(nm)” value stood at 500 nm and the “Fold (fluorescent emission fold changes to RNA)” value amounted to 27.
For the molecule `COc1cc(/C=C/c2cc[n+](C)cc2)c(OCc2ccccc2)cc1OC` [Dye A156], the “Em(nm)” value is 580 nm, the “Ex(nm)” value came to 450 nm and the “Fold (fluorescent emission fold changes to RNA)” value was found to be 42.
Consider `CN(CCC#N)c1ccc(/C=C/c2cc[n+](C)cc2)cc1` [Dye A9], for which the “Em(nm)” value amounted to 600 nm, the “Ex(nm)” value turned out to be 500 nm and the “Fold (fluorescent emission fold changes to RNA)” value is 21.
Taken in the same sequence, the figures for `CN(CCO)c1ccc(/C=C/c2cc[n+](C)cc2)cc1` [Dye A10] were 610 nm, 500 nm and 23.
Regarding `Cc1cc(C=Cc2cc[n+](C)cc2)c(C)n1-c1cccc(C(F)(F)F)c1` [Dye A121], the “Em(nm)” value came to 540 nm, the “Ex(nm)” value worked out at 450 nm and the “Fold (fluorescent emission fold changes to RNA)” value came out at 28.
As for `Cc1cccc(/C=C/c2ccc(N(C)CCC#N)cc2)[n+]1C` [Dye C9], the “Em(nm)” value is 610 nm, the “Ex(nm)” value was determined as 500 nm and the “Fold (fluorescent emission fold changes to RNA)” value amounted to 9.
`CCN(CC)c1ccc(C=Cc2cccc[n+]2C)cc1` [Dye B92]: the “Em(nm)” value is recorded as 600 nm, the “Ex(nm)” value worked out at 500 nm and the “Fold (fluorescent emission fold changes to RNA)” value amounted to 28.
With `CCN(CC)c1ccc(/C=C/c2cccc[n+]2C)c(C#N)c1` [Dye B132], the “Em(nm)” value is listed as 590 nm, the “Ex(nm)” value was found to be 500 nm and the “Fold (fluorescent emission fold changes to RNA)” value is recorded as 28.
With `C[n+]1ccc(C=Cc2c(O)ccc3ccccc23)cc1` [Dye A42], the “Em(nm)” value was 560 nm, the “Ex(nm)” value is given as 450 nm and the “Fold (fluorescent emission fold changes to RNA)” value was 10.
In the case of `C[n+]1c(C=Cc2cc(Br)c(Cl)c(Br)c2)ccc2ccccc21` [Dye E111], the “Em(nm)” value amounted to 620 nm, the “Ex(nm)” value came to 500 nm and the “Fold (fluorescent emission fold changes to RNA)” value was found to be 17.
For `COc1ccc2c(ccc(C=Cc3cc(OC)c(OC)cc3OC)[n+]2C)c1.[I-]` [Dye F8], in that order: 610 nm, 500 nm and 52.
For `CN(C)c1ccc(C=Cc2cc[n+](C)cc2)c2ccccc12` [Dye A24], in that order: 660 nm, 500 nm and 103.
`Cn1c(/C=C/c2cc[n+](C)cc2)cc2ccccc21` [Dye A108]: the “Em(nm)” value came to 590 nm, the “Ex(nm)” value is listed as 450 nm and the “Fold (fluorescent emission fold changes to RNA)” value was determined as 8.
For the molecule `COc1ccc2c(ccc(C=Cc3ccc(N(C)CCO)cc3)[n+]2C)c1` [Dye F10], the “Em(nm)” value was 630 nm, the “Ex(nm)” value is recorded as 500 nm and the “Fold (fluorescent emission fold changes to RNA)” value amounted to 38.
As for `Cn1c(/C=C/c2cc[n+](C)c3ccccc23)cc2ccccc21` [Dye D108], the “Em(nm)” value is reported as 630 nm, the “Ex(nm)” value was 500 nm and the “Fold (fluorescent emission fold changes to RNA)” value came to 21.
For `Cc1cccc(C=Cc2cc3ccccc3n2C)[n+]1C` [Dye C108], the “Em(nm)” value came out at 580 nm, the “Ex(nm)” value is reported as 450 nm and the “Fold (fluorescent emission fold changes to RNA)” value is recorded as 8.
Take `COc1cc(OC)c(OC)cc1C=Cc1cccc(C)[n+]1C` [Dye C8]: the “Em(nm)” value is 570 nm, the “Ex(nm)” value came to 450 nm and the “Fold (fluorescent emission fold changes to RNA)” value came to 9.
With `CN(C)c1ccc(C=Cc2cc[n+](C)cc2)cc1` [Dye A22], the “Em(nm)” value worked out at 610 nm, the “Ex(nm)” value is recorded as 500 nm and the “Fold (fluorescent emission fold changes to RNA)” value is 28.

Test system in the next series: not listed separately
Briefly: Fluorescence spectrum in TE buffer of dyes selected from live cell imaging. It counts as physicochemical. Conditions: dye 10 μM in TE buffer. On the procedure: as §1
In turn, `C[n+]1c(C=Cc2cc(C(C)(C)C)ccc2O)ccc2ccccc21` [Dye E73] gave an SPECTRUM EM of 550 nm and an SPECTRUM EX of 450 nm.
Taken in the same sequence, the figures for `COc1ccc2c(ccc(C=Cc3c(C)ccc4ccccc34)[n+]2C)c1` [Dye F143] were 550 nm and 450 nm.
As to `COc1ccc2c(ccc(C=Cc3ccc(-c4cccs4)s3)[n+]2C)c1` [Dye F119], the SPECTRUM EM worked out at 610 nm and the SPECTRUM EX worked out at 500 nm.
`COc1ccc2c(ccc(C=Cc3cccc(Br)c3)[n+]2C)c1` [Dye F40] had an SPECTRUM EM of 490 nm and an SPECTRUM EX of 400 nm.
In turn, `COc1ccc2c(ccc(/C=C/c3cccc(Br)n3)[n+]2C)c1` [Dye F128] returned an SPECTRUM EM of 510 nm and an SPECTRUM EX of 400 nm.
Consider `COc1ccc2c(ccc(/C=C/c3ccccc3OCC(=O)O)[n+]2C)c1` [Dye F116], for which the SPECTRUM EM turned out to be 520 nm and the SPECTRUM EX came out at 400 nm.
`COc1ccc2c(ccc(/C=C/c3cc(I)ccc3O)[n+]2C)c1` [Dye F120] had an SPECTRUM EM of 550 nm and an SPECTRUM EX of 450 nm.
For the molecule `COc1ccc2c(ccc(/C=C/C3CCCN3C)[n+]2C)c1` (stereo not drawn) [Dye F74], the SPECTRUM EM is 550 nm and the SPECTRUM EX turned out to be 450 nm.
Taken in the same sequence, the figures for `C[n+]1c(/C=C/c2ccc(Br)s2)ccc2ccccc21` [Dye E77] were 470 nm and 350 nm.
Taken in the same sequence, the figures for `C[n+]1c(/C=C/c2ccc(-c3cccs3)s2)ccc2ccccc21` [Dye E119] were 600 nm and 450 nm.
On to `COc1ccc2c(ccc(C=Cc3cc(C(C)(C)C)ccc3O)[n+]2C)c1` [Dye F73], for which the SPECTRUM EM was determined as 490 nm and the SPECTRUM EX was 400 nm.
For `COc1ccc(Oc2cccc(/C=C/c3ccc4ccccc4[n+]3C)c2)cc1` [Dye E83], in that order: 450 nm and 350 nm.
